These results are taken from PubChem BioAssay AID1902 (Broad Institute, 2009).

The structures appear in SMILES notation. Activity calls are given as the source filed them.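 The calls were made as follows: active = EC50 no more than a set limit of log units above the highest dose; inactive = the rest.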

The target of the assay is S. pyogenes SKKanGAS, kanamycin survival, BacTiterGlo, 6 h. As to the kind of experiment: SKKanGAS survival reduction under kanamycin, dose response, streptokinase promoter inhibitor project, SKKanGAS strain, luminescence, dose confirmation (AID 1902).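 Also: lower survival reflects blocked streptokinase promoter driving kanamycin resistance gene.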

In the case of `Oc1nc(Nc2ccc(Cl)cc2Cl)sc1/C=C1\C=Nc2ccccc21`, the EC50 (as a rule, the concentration at which the effect is half-maximal) was 1.76 µM.

For `CCn1c(=O)c(C(=O)Nc2nc3ccccc3[nH]2)c(O)c2ccccc21`, the 50% effective concentration (EC50) is 1.03 µM.

`CCN(CC)S(=O)(=O)c1ccc(N2CCOCC2)c(NC(=O)C2CSC3(C)CCC(=O)N23)c1` (centres undefined): the EC50 was > 15 µM (inactive).

Turning to `CCCSc1cc(N2CCCC2)nc(-c2ccccc2)n1`, the EC50 is 6.8 µM.

For `C/C(=N\NC(=O)COc1ccccc1-c1ccccc1)c1ccc(O)cc1O`, the EC50 is 3.89 µM.

On to `O=C(Nc1nnc(SCc2ccc(F)cc2)s1)c1ccc2c(c1)C(=O)N(c1ccccc1Cl)C2=O`, for which the EC50 is 6.26 µM.

Regarding `C[N+](C)(C)c1ccc(/C=N/Nc2nc(Cl)c(C#N)c(Cl)c2Cl)cc1`, the EC50 was > 15 µM (inactive).

As to `Cc1ccc(N2C(=O)C3CC(c4ccccc4)=C4C5C=CC(C6C(=O)N(c7ccc(C)cc7)C(=O)C56)C4C3C2=O)cc1` (centres undefined), the EC50 was 1.39 µM.

Turning to `CC(Oc1ccc(Cl)cc1Cl)c1nc(-c2ccc(NC(=O)c3ccco3)cc2)no1` (centres undefined), the EC50 is 5.82 µM.

Take `CCCCc1c(C)nn(-c2nnc3c4ccccc4n(CC)c3n2)c1C`: the EC50 is 1.84 µM.

As for `Cc1ccc(C)n1-c1sc2c(c1C#N)CCC(C)C2` (centres undefined), the EC50 was 2.35 µM.

On to `Cc1cccc(/C=C/C(=O)c2cc(Br)ccc(=O)c2O)c1`, for which the EC50 was 0.818 µM.

Turning to `O=C(Cc1cccs1)NNC(=S)NC(=O)c1ccccc1`, the EC50 is 3.29 µM.

As for `Cc1nn(-c2ccccc2)c(C)c1/C=N/NC(=O)c1cc(-c2ccc(Br)s2)[nH]n1`, the EC50 was 4.23 µM.

On to `COc1ccc(OC)c(CCNC(=O)C(=O)Nc2ccc3nc4n(c(=O)c3c2)CCCCC4)c1`, for which the concentration giving a half-maximal response (EC50) was 10.1 µM.

As for `CCN1C(=O)/C(=C\c2ccc(-c3ccc([N+](=O)[O-])cc3OC)o2)SC1=Nc1cccc(C(=O)O)c1`, the EC50 is 3.57 µM.

Consider `Cc1cccc(OCC(=O)Nc2ccc(C(=O)Nc3ccccc3C(=O)O)cc2)c1C`, for which the EC50 is 2.41 µM.

As to `COC(=O)c1c(NC(=O)c2ccc([N+](=O)[O-])o2)sc2c1CCN(C(C)C)C2`, the EC50 is 4 µM.

As for `CCCn1c(NC(=O)c2ccccc2)nc2ccccc21`, the EC50 is 1.57 µM.

Consider `Oc1c(CN2CCc3ccccc3C2)cc(Cl)c2cccnc12`, for which the EC50 was 2.15 µM.

For the molecule `Cc1ccc(-c2nn(-c3ccccc3)cc2/C=N/O)cc1`, the concentration for a half-maximal effect (EC50) is 6.28 µM.

Consider `O=C(CN(c1ccc(Cl)c(C(F)(F)F)c1)S(=O)(=O)c1ccccc1)N/N=C/c1cccc2c1OCCO2`, for which the EC50 was 13.4 µM.

Turning to `COc1cccc(N2C(=O)C3NN=C(C(=O)CN4C(=O)c5ccccc5C4=O)C3C2=O)c1` (centres undefined), the EC50 is > 15 µM (inactive).

For the molecule `NC(=O)NC(=O)CSc1nc2sc(-c3ccccc3)cc2c(=O)n1-c1ccccc1`, the EC50 was 1.18 µM.

Consider `Cc1nnc(NC(=O)c2ccc(S(=O)(=O)N3CC(C)CC(C)C3)cc2)o1` (centres undefined), for which the EC50 was 5.82 µM.

With `O=C(NC(c1ccc(Cl)cc1)c1cc(Cl)c2cccnc2c1O)c1cccnc1` (centres undefined), the EC50 is 0.278 µM.

Turning to `Cc1ccc(C(=O)N2CCCC(CCC(=O)NCc3ccccc3F)C2)cn1` (centres undefined), the EC50 was > 15 µM (inactive).

As to `COc1cccc(/C=N/NC(=O)c2cc3c(OC)ccc(OC)c3[nH]2)c1O`, the EC50 is 2 µM.

As for `COc1ccc(CCNC(=O)c2cc(-c3ccc(Cl)c(Cl)c3)oc2C)cc1`, the EC50 is 12.2 µM.

Regarding `Clc1ccc(-c2ccc(/C=N/Nc3cc(N4CCOCC4)nc(N4CCOCC4)n3)o2)cc1`, the EC50 was 15.7 µM.

On to `O=C(NNC(=S)NC(=O)c1ccccc1)c1cccc([N+](=O)[O-])c1`, for which the EC50 was 5.82 µM.

As for `Cc1nn2c(NCc3ccccn3)cc(C(C)(C)C)nc2c1-c1ccccc1`, the EC50 was 1.54 µM.

As for `O=C(NCc1ccc(C(F)(F)F)cc1)c1ccc2c(c1)S(=O)(=O)c1ccccc1C2=O`, the EC50 was > 15 µM (inactive).

As for `C=CCn1c(N2C(=O)CC(Cc3ccccc3)C2=O)nc2ccccc21` (centres undefined), the EC50 was 4.5 µM.

Regarding `S=c1[nH]nc(-c2cc3c(s2)-c2ccccc2CC3)o1`, the concentration giving a half-maximal response (EC50) was 3.87 µM.

With `O=C(NNC1=Nc2cccc3cccc1c23)c1ccc(Br)cc1`, the EC50 is 0.22 µM.

In the case of `CCOC(=O)c1ccc(-c2ccc3c(=O)c4ccccc4n(C)c3c2)cc1F`, the concentration giving a half-maximal response (EC50) is 4.15 µM.

For `Cc1csc2c(N3CCN(C(=O)Nc4ccc(Cl)c(Cl)c4)CC3)ncnc12`, the EC50 is 2.99 µM.

For the molecule `Cc1ccc(O)c(NC(=S)NC(=O)c2ccc(-c3ccc(Cl)cc3)o2)c1`, the EC50 was 0.221 µM.

Consider `CCC(=O)Nc1nc2ccccc2n1Cc1ccccc1C`, for which the EC50 is 1.62 µM.

With `C/C(=N\NC(=O)c1ccc(Cl)c(Cl)c1)c1ccccn1`, the EC50 was 0.063 µM.

In the case of `CCCCCCCCCCCCN1C(=O)CSC1c1cccnc1` (centres undefined), the EC50 is 5.91 µM.

In the case of `COc1ccc2oc(C(=O)Nc3nc4ccccc4[nH]3)c(C)c2c1`, the EC50 is 5.62 µM.

With `Cc1ccc(/C=C/C(=O)c2ccccc(=O)c2O)cc1C`, the EC50 is 4.04 µM.

On to `Cc1cc(-c2csc3nc[nH]c(=S)c23)cc(C)c1C`, for which the EC50 was 1.67 µM.

On to `CSc1nsc2nc(=O)c(/C=C3\C=Nc4ccccc43)c(N)n12`, for which the concentration giving a half-maximal response (EC50) was 3.57 µM.

In the case of `CC(C)CN1C(=S)SC(C)(C)C1n1oc(=O)n(-c2ccc(Cl)cc2)c1=O` (centres undefined), the EC50 was 4.33 µM.

For the molecule `Cc1cc(C)cc(NS(=O)(=O)c2ccc(NC(=S)NC(=O)c3cccs3)cc2)c1`, the concentration giving a half-maximal response (EC50) was 6.32 µM.

In the case of `Cc1cccc(NC(=S)Nc2ccc(Cl)c(Cl)c2)c1`, the half-maximal effective concentration (EC50) is 9.6 µM.

Regarding `Cc1ccc(/C=N/NC(=O)C2=NNC(c3ccccc3)(c3ccccc3)C2)c(O)c1`, the EC50 was 4.01 µM.

`CN(c1ccccc1)c1nc(N2CCCC2)nc(-n2ccnc2)n1`: the EC50 is 10.8 µM.

As to `Cc1ccc(C2Oc3ccccc3C3=C2C(c2cccs2)n2ncnc2N3)cc1` (centres undefined), the EC50 was 3.76 µM.

Regarding `Cc1ccc(C(c2cc(Cl)c3cccnc3c2O)N2CCN(C)CC2)cc1` (centres undefined), the EC50 is 1.84 µM.

As for `O=C(NNc1c2ccccc2nc2ccccc12)c1ccc(O)cc1O`, the EC50 is 3.15 µM.

Regarding `Cc1nn(C)c(C(=O)Nc2ccc(S(=O)(=O)NC34CC5CC(CC(C5)C3)C4)cc2)c1Br`, the EC50 was 4.9 µM.

`O=C(O)c1ccccc1-c1ccccc1C(=O)Nc1ccc(-c2nc3cc(Cl)ccc3o2)cc1`: the EC50 is 5.3 µM.

As to `Oc1c(C(Nc2ccccn2)c2ccccn2)ccc2cccnc12` (centres undefined), the EC50 is 10.7 µM.

For the molecule `O=c1cc(-c2ccccc2)[nH]n1-c1nc2ccccc2s1`, the EC50 is 2.72 µM.

As for `C/C(=N\NC(=O)c1ccc(Cl)c(Cl)c1)c1ccc(Br)s1`, the EC50 is 0.563 µM.

For the molecule `CCCCNc1c2c3c(cccc3n(C)c1=O)C(=O)c1ccccc1-2`, the EC50 is 6.26 µM.

For the molecule `CC(=O)c1c(C)[nH]c(C(=O)Nc2nc(-c3ccc(-c4ccccc4)cc3)cs2)c1C`, the EC50 was 4.14 µM.

Consider `O=[N+]([O-])c1cc(S(=O)(=O)C(F)(F)F)ccc1Sc1nc2ccccc2[nH]1`, for which the EC50 was 4.1 µM.

Turning to `COc1ccc2c(C)nc(Nc3nc(-c4ccccc4)cc(=O)[nH]3)nc2c1`, the EC50 was 2.75 µM.

As for `Oc1c(Br)cc(Br)cc1/C=N/NC(=S)N[C@H]1CC2C=CC1C2` (some centres undefined), the EC50 is 0.15 µM.

As for `C/C(=N\NC(=O)CSc1nc(C)[nH]c1[N+](=O)[O-])c1ccc(F)cc1`, the EC50 was > 15 µM (inactive).

As for `O=C1/C(=C\c2cc([N+](=O)[O-])ccc2O)SC(=S)N1Cc1ccc(Cl)cc1`, the EC50 was 2.18 µM.

Regarding `O=c1[nH]c(=O)n([C@H]2C[C@H](O)[C@@H](CO)O2)cc1F`, the EC50 is 0.689 µM.

On to `COc1cccc(C(=O)N/N=C(/c2ccccc2)c2ccccn2)c1`, for which the EC50 was 8.86 µM.

In the case of `Cc1noc(C)c1CSc1nc2ccccc2nc1NS(=O)(=O)c1ccc(Cl)cc1`, the 50% effective concentration (EC50) is 3.13 µM.

Regarding `Cc1ccc(S(=O)(=O)/N=C2\C=C(Nc3cccc(C(=O)O)c3)C(=O)c3ccccc32)cc1`, the concentration for a half-maximal effect (EC50) is 2.43 µM.

Regarding `C/C(Cl)=C\Cn1c(O)c(N=NC(N)=S)c2cc(Br)ccc21`, the EC50 is 1.36 µM.

`[O-][n+]1c2ccccc2[n+]([O-])c2cc(O)ccc21`: the EC50 is 5.86 µM.

On to `O=C(C1CCCCC1)N1CCC(c2nc3c(nnn3Cc3c(F)cccc3Cl)c(=O)[nH]2)CC1`, for which the EC50 is 3.79 µM.

As for `CCSc1nnc(NC(=O)c2nc(-c3ccccc3)n(-c3ccccc3)n2)s1`, the EC50 was 3.49 µM.

Consider `c1ccc2c(Nc3nc4c(s3)CCCC4)cccc2c1`, for which the EC50 was 1.17 µM.

With `COc1ccc(N=Nc2ccc(O)c3ncccc23)cc1`, the EC50 is less than 0.06 µM.

As for `O=C(COC(=O)Cc1cn2ccsc2n1)Nc1nc2ccccc2s1`, the EC50 was 2.51 µM.

For the molecule `O=C(NC(=S)NNC(=O)c1ccccc1[N+](=O)[O-])c1ccc(Br)cc1`, the EC50 is 2.24 µM.

On to `Cc1cc(/C=C2\SC(=S)NC2=O)c(C)n1-c1cccc(O)c1`, for which the EC50 was 3.06 µM.

As to `CCCN(CC(=O)Nc1cc(Cl)cc(Cl)c1)CC(=O)Nc1ccc(F)c(F)c1F`, the concentration for a half-maximal effect (EC50) was 4.87 µM.

Consider `c1ccc(N2CCN(c3nc(-c4ccccn4)nc4ccccc34)CC2)cc1`, for which the concentration for a half-maximal effect (EC50) is less than 0.06 µM.

Take `CCCCCCN1N=C(C)C(C(=O)c2ccc(Cl)cc2)C1=O` (centres undefined): the EC50 was 1.51 µM.

Take `COc1ccccc1-n1c(SCC(=O)Nc2ccc(Br)cc2)nc(O)cc1=O`: the 50% effective concentration (EC50) was 10.3 µM.

`Cc1c(CCC(=O)O)c(=O)oc2cc3occ(-c4ccc(Cl)cc4)c3cc12`: the EC50 is 3.46 µM.

In the case of `Cn1c(Oc2ccccc2NCc2cc(Br)ccc2O)cc(=O)n(C)c1=O`, the EC50 is 4.46 µM.

As to `COC(=O)c1ccc(NC(=O)c2nc(S(=O)(=O)Cc3cccc(C)c3)ncc2Cl)cc1`, the EC50 was 1.04 µM.

`Cn1c(C(=O)N2CCN(c3ccc([N+](=O)[O-])cc3)CC2)cc2c(=O)[nH]c3ccccc3c21`: the EC50 is 4.56 µM.

`C=CCn1c(SCC(=O)/C(C#N)=C(\C)N)nc2sc(C)c(C)c2c1=O`: the EC50 is 5.25 µM.

Consider `Oc1ccc(CN2CCc3ccccc3C2)c2cccnc12`, for which the EC50 is 4.09 µM.

In the case of `CCC/C=C(\CCC)C(NS(=O)(=O)c1ccc(C(F)(F)F)cc1)c1ccccc1` (centres undefined), the EC50 is 3.48 µM.

In the case of `COc1cc(NC(=O)CSc2ncnc3sc4c(c23)CCCC4)c(C(=O)O)cc1OC`, the EC50 is 12 µM.

As to `COc1cc(/C=N/Nc2nc(Nc3ccc(C)cc3)nc(-n3nc(C)cc3C)n2)cc(OC)c1OC`, the EC50 is 0.171 µM.

`COc1ccc(-n2nc(C(=O)c3cccs3)cc(-c3nc4ccccc4[nH]3)c2=N)cc1`: the EC50 is 1.2 µM.

As for `CCn1c(C)nc2cc(C(=O)NNC(=S)NC(=O)c3ccc(OC)cc3)ccc21`, the half-maximal effective concentration (EC50) is 5.87 µM.
